Experimental data published in PMC10227015, “From a drug repositioning to a structure-based drug design approach to tackle acute lymphoblastic leukemia” (Nature Communications, 2023).

How the values were obtained:
97 kinases = assay: Kinome profiling (KINOMEscan, whole panel); assay type: binding, human; settings: OR0642 1 µM
Method: (§1) Kinome profiling was provided by Eurofins DiscoverX Corporation. Determination of the % control activity for 97 kinases was obtained through an active site-directed competition binding assay that quantitatively measure interactions between compound and kinases. OR0642 was used at 1 μM.
(§2) Supplementary Table 3. KINOMEscan™ Profiling of OR0642. Competition binding assay to quantitatively measure interactions between OR0642 (1 µM) and 97 human kinases and disease relevant mutant variants.
(§3) Target Gene Symbol %Control Target Gene Symbol %Control […]

PLK3 = target: T1, PLK3 (Homo sapiens, UniProt Q9H4B4); assay: KINOMEscan competition binding; settings: OR0642 1 µM; read-out: %Control
T1 construct: purchased Eurofins DiscoverX (KINOMEscan scanEDGE 97)
Method: as §1, §2, §3

SRC = target: T2, SRC (Homo sapiens, UniProt P12931); assay: KINOMEscan competition binding; settings: OR0642 1 µM; read-out: %Control
T2 construct: purchased Eurofins DiscoverX (KINOMEscan scanEDGE 97)
Method: as §1, §2, §3

RIOK2 = target: T3, RIOK2 (Homo sapiens, UniProt Q9BVS4); assay: KINOMEscan competition binding; settings: OR0642 1 µM; read-out: %Control
T3 construct: purchased Eurofins DiscoverX (KINOMEscan scanEDGE 97)
Method: as §1, §2, §3

[1] = test system: NOD-SCID-IL2Rγc null (NSG) mice; assay: In vivo toxicity in NSG mice, 2 weeks, with and without dT; settings: mouse models, 80 mg/kg twice/day
Method: To evaluate the in vivo toxicity selected compounds were injected by intraperitoneal (IP) route to 7 weeks-old male Swiss mice (n = 2) at 10, 20, 40, 50, or 80 mg/kg by unique injection. […] Compounds were administered in their hydrochloride salt forms. Mice were then observed closely for the next one hour, then every hour for 8 h. Observations were continued for 72 h for signs of pain or toxicity such as change in the behavior and in the activity in the cage (decreased locomotion) or change in the appearance (curved back, eyes half-closed, bristle hair, hips hollowed out). In vivo toxicity of compound OR0642 at 40 and 80 mg/kg was also assessed in the NOD-SCID-IL2Rγc null (NSG) mice model for 2 weeks in the presence and absence of dT to confirm the safety of the compound. […]. Blood samples were collected and spun at 10,000 × g prior to collecting the plasma supernatants. All plasma samples were frozen at −80 °C before sample processing. 13 μl of each plasma sample was mixed with 33 μl of acetonitrile to precipitate proteins and extract the compound. […] Supernatants were transferred to a microplate to be analyzed by LC–MS/MS. All samples were analyzed with a UHPLC coupled to a Shimadzu LC-MS 8030 triple quadrupole. The solutions of a standard range, prepared with plasma from untreated mice, were analyzed in the same series of injections.

PDX UPNT615 = assay: Ex vivo testing on PDX samples (viability, flow cytometry, 72 h); assay type: cell-based, human
Text: (§4) Bone marrow-infiltrating blasts from terminally mice bearing PDX as stated above were collected as established before. Extensive analysis (immunophenotype and molecular analysis) of matched primary and PDX samples used in the study are shown in Supplementary Table 7, showing that they remain stable. Briefly, after euthanasia, bone marrows from tibiae, hips, femurs, and vertebrae were isolated and blasts collected for subsequent ex vivo experiments. All samples used contained ≥90% blasts as determined by flow cytometry. For the cytotoxic evaluation of OR0642, blasts were then stained with CellTraceTM Violet (CTV, Thermo Fisher Scientific, C34557) prior seeding at 10,000 cells into 96-well plates under normal conditions or pre-plated with OP9-DL1 cells. Cells were cultured in RPMI 1640 supplemented with 20% fetal bovine serum, 50 µg/ml streptomycin, 50 UI penicillin, 4 mM L-glutamine, and a cocktail of human cytokines as previously established (50 ng/ml human stem cell factor, 20 ng/ml hFLT3-L, 10 ng/ml hIL-7 and 20 nM insulin (Miltenyi Biotec))[28]. […] Rescue by dC supplementation (1 µM) was also evaluated. OR0642 was then tested alone, or combined with dT or dT + dC at two concentrations (0.25 and 0.5 µM). Cell viability was evaluated by flow cytometry 72 h post-treatment. Proliferation indexes were calculated using the detection of CTV in the control replicates (DMSO) and the proliferation modeling tool of FlowJo™ Software 10.7.1 (BD Life Sciences). A control peak of undivided CTV-stained cells was systematically used to set the undivided fraction.

PDX UPNT486 = assay: as above; assay type: cell-based, human
Text: as §4

PDX UPNT885 = assay: as above; assay type: cell-based, human
Text: as §4

PDX UPNT525 = assay: as above; assay type: cell-based, human
Text: as §4

PDX UPNT380 = assay: as above; assay type: cell-based, human
Text: as §4

PDX UPNT489 = assay: as above; assay type: cell-based, human
Text: as §4

T1 sequence (Q9H4B4 whole entry): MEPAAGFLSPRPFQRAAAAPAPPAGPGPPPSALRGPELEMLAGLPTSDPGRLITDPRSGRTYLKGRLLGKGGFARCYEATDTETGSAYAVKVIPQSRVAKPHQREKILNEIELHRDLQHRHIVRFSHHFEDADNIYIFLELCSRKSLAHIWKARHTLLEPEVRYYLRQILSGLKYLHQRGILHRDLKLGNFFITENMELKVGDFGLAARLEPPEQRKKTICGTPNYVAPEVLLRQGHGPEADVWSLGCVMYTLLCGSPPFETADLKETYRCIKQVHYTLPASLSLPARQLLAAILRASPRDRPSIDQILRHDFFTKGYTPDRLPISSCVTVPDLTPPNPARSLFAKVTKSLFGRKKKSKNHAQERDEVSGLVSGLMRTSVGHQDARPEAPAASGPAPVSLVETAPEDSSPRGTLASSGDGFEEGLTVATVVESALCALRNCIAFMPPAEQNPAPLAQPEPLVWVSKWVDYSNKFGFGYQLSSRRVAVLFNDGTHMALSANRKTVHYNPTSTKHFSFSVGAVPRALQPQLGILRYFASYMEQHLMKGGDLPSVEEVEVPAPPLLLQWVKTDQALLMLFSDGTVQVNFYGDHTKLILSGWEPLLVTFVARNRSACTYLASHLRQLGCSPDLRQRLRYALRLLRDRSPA
T2 sequence (P12931 whole entry): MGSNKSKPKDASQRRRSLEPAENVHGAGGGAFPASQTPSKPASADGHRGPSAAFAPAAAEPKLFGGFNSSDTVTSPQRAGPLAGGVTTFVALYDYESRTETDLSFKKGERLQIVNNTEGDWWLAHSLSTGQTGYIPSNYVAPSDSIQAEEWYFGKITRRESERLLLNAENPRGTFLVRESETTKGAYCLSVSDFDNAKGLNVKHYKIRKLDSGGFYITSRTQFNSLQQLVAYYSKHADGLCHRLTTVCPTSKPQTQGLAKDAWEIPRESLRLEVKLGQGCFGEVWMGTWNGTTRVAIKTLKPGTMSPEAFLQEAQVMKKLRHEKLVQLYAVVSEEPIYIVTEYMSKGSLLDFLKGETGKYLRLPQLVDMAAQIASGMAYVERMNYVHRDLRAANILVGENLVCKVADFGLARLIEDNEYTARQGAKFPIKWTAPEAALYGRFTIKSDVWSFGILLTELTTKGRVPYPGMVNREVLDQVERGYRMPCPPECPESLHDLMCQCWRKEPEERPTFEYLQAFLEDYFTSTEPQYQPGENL
T3 sequence (Q9BVS4 whole entry): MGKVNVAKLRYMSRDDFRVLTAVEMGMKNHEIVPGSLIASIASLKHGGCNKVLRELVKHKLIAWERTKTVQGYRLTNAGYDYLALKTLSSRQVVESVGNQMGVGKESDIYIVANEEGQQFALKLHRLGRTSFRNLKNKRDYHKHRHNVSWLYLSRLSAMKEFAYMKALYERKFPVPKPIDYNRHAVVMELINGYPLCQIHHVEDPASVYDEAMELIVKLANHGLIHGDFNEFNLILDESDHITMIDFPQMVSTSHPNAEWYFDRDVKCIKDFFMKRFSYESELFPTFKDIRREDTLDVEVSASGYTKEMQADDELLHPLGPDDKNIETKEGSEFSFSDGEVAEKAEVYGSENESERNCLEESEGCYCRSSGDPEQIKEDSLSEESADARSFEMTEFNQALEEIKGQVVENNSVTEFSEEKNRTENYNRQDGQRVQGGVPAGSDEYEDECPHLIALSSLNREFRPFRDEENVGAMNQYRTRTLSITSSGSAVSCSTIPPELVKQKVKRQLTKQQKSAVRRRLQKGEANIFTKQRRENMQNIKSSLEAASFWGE

Q: With CCCN(c1nc(-c2nc(N)cc(N)n2)cs1)c1cc(-c2ccc(S(=O)(=O)N3CCN(C)CC3)cc2C(F)(F)F)ccc1C [OR0642] as the compound, how does the “kinome-wide profiling” value (97 kinases) read?
A: The value was “none of the 97 kinases tested was inhibited”.

Q: And the remaining binding at 1 µM (PLK3)?
A: The remaining binding at 1 µM was 100%.

Q: What about the remaining binding at 1 µM (SRC) of the same compound?
A: The remaining binding at 1 µM was 92%.

Q: And the remaining binding at 1 µM (RIOK2)?
A: The remaining binding at 1 µM was 98%.

Q: What about the in vivo tolerance [1] of the same compound?
A: The in vivo tolerance was “well tolerated”.

Q: Which viability at 12 µM (PDX UPNT615; Homo sapiens, UPNT615, dT 12 µM, read-out: Cell viability, Mean (% viab)) does the source give for Cc1cn([C@H]2C[C@H](O)[C@@H](CO)O2)c(=O)[nH]c1=O [dT, thymidine] here?
A: The viability at 12 µM was 100%.

Q: And the viability at 37 µM (PDX UPNT615; Homo sapiens, UPNT615, dT 37 µM, read-out: Cell viability, Mean (% viab))?
A: Its viability at 37 µM is 84.7%.

Q: What about the viability at 111 µM (PDX UPNT615; Homo sapiens, UPNT615, dT 111 µM, read-out: Cell viability, Mean (% viab)) of the same compound?
A: Its viability at 111 µM is 78.6%.

Q: What about the viability at 333 µM (PDX UPNT615; Homo sapiens, UPNT615, dT 333 µM, read-out: Cell viability, Mean (% viab)) of the same compound?
A: The viability at 333 µM was 73.6%.

Q: What about the viability at 1000 µM (PDX UPNT615; Homo sapiens, UPNT615, dT 1000 µM, read-out: Cell viability, Mean (% viab)) of the same compound?
A: Its viability at 1000 µM is 67.2%.

Q: And the viability at 3000 µM (PDX UPNT615; Homo sapiens, UPNT615, dT 3000 µM, read-out: Cell viability, Mean (% viab))?
A: The viability at 3000 µM was 66.7%.

Q: And the “Response at dT100 µM” value (PDX UPNT615; PDX 615, dT 100 µM)?
A: Its value is 31.

Q: And the viability at 12 µM (PDX UPNT486; Homo sapiens, UPNT486, dT 12 µM, read-out: Cell viability, Mean (% viab))?
A: The viability at 12 µM was 99.7%.

Q: And the viability at 37 µM (PDX UPNT486; Homo sapiens, UPNT486, dT 37 µM, read-out: Cell viability, Mean (% viab))?
A: The viability at 37 µM was 95%.

Q: And the viability at 111 µM (PDX UPNT486; Homo sapiens, UPNT486, dT 111 µM, read-out: Cell viability, Mean (% viab))?
A: The viability at 111 µM was 90.6%.

Q: What about the viability at 333 µM (PDX UPNT486; Homo sapiens, UPNT486, dT 333 µM, read-out: Cell viability, Mean (% viab)) of the same compound?
A: Its viability at 333 µM is 100%.

Q: What about the viability at 1000 µM (PDX UPNT486; Homo sapiens, UPNT486, dT 1000 µM, read-out: Cell viability, Mean (% viab)) of the same compound?
A: Its viability at 1000 µM is 90.2%.

Q: And the viability at 3000 µM (PDX UPNT486; Homo sapiens, UPNT486, dT 3000 µM, read-out: Cell viability, Mean (% viab))?
A: Its viability at 3000 µM is 77.6%.

Q: What about the “Response at dT100 µM” value (PDX UPNT486; PDX 486, dT 100 µM) of the same compound?
A: Its value is 31.

Q: And the viability at 12 µM (PDX UPNT885; Homo sapiens, UPNT885, dT 12 µM, read-out: Cell viability, Mean (% viab))?
A: Its viability at 12 µM is 100%.

Q: And the viability at 37 µM (PDX UPNT885; Homo sapiens, UPNT885, dT 37 µM, read-out: Cell viability, Mean (% viab))?
A: The viability at 37 µM was 85.3%.

Q: And the viability at 111 µM (PDX UPNT885; Homo sapiens, UPNT885, dT 111 µM, read-out: Cell viability, Mean (% viab))?
A: Its viability at 111 µM is 65.1%.

Q: What about the viability at 333 µM (PDX UPNT885; Homo sapiens, UPNT885, dT 333 µM, read-out: Cell viability, Mean (% viab)) of the same compound?
A: The viability at 333 µM was 49.5%.

Q: What about the viability at 1000 µM (PDX UPNT885; Homo sapiens, UPNT885, dT 1000 µM, read-out: Cell viability, Mean (% viab)) of the same compound?
A: Its viability at 1000 µM is 44.3%.

Q: And the viability at 3000 µM (PDX UPNT885; Homo sapiens, UPNT885, dT 3000 µM, read-out: Cell viability, Mean (% viab))?
A: Its viability at 3000 µM is 39.5%.

Q: And the “Response at dT100 µM” value (PDX UPNT885; PDX 885, dT 100 µM)?
A: Its value is 49.

Q: And the viability at 37 µM (PDX UPNT525; Homo sapiens, UPNT525, dT 37 µM, read-out: Cell viability, Mean (% viab))?
A: The viability at 37 µM was 99.5%.

Q: And the viability at 111 µM (PDX UPNT525; Homo sapiens, UPNT525, dT 111 µM, read-out: Cell viability, Mean (% viab))?
A: The viability at 111 µM was 67.8%.

Q: And the viability at 333 µM (PDX UPNT525; Homo sapiens, UPNT525, dT 333 µM, read-out: Cell viability, Mean (% viab))?
A: The viability at 333 µM was 44.3%.

Q: What about the viability at 1000 µM (PDX UPNT525; Homo sapiens, UPNT525, dT 1000 µM, read-out: Cell viability, Mean (% viab)) of the same compound?
A: Its viability at 1000 µM is 30.6%.

Q: And the viability at 3000 µM (PDX UPNT525; Homo sapiens, UPNT525, dT 3000 µM, read-out: Cell viability, Mean (% viab))?
A: Its viability at 3000 µM is 24.9%.

Q: What about the “Response at dT100 µM” value (PDX UPNT525; PDX 525, dT 100 µM) of the same compound?
A: The value was 44.

Q: And the viability at 12 µM (PDX UPNT380; Homo sapiens, UPNT380, dT 12 µM, read-out: Cell viability, Mean (% viab))?
A: The viability at 12 µM was 100%.

Q: And the viability at 37 µM (PDX UPNT380; Homo sapiens, UPNT380, dT 37 µM, read-out: Cell viability, Mean (% viab))?
A: Its viability at 37 µM is 85.4%.

Q: What about the viability at 111 µM (PDX UPNT380; Homo sapiens, UPNT380, dT 111 µM, read-out: Cell viability, Mean (% viab)) of the same compound?
A: The viability at 111 µM was 79.4%.

Q: And the viability at 333 µM (PDX UPNT380; Homo sapiens, UPNT380, dT 333 µM, read-out: Cell viability, Mean (% viab))?
A: The viability at 333 µM was 76.9%.

Q: What about the viability at 1000 µM (PDX UPNT380; Homo sapiens, UPNT380, dT 1000 µM, read-out: Cell viability, Mean (% viab)) of the same compound?
A: Its viability at 1000 µM is 70.3%.

Q: And the viability at 3000 µM (PDX UPNT380; Homo sapiens, UPNT380, dT 3000 µM, read-out: Cell viability, Mean (% viab))?
A: Its viability at 3000 µM is 67.7%.

Q: What about the “Response at dT100 µM” value (PDX UPNT380; PDX 380, dT 100 µM) of the same compound?
A: Its value is 27.

Q: What about the viability at 12 µM (PDX UPNT489; Homo sapiens, UPNT489, dT 12 µM, read-out: Cell viability, Mean (% viab)) of the same compound?
A: Its viability at 12 µM is 100%.

Q: And the viability at 37 µM (PDX UPNT489; Homo sapiens, UPNT489, dT 37 µM, read-out: Cell viability, Mean (% viab))?
A: Its viability at 37 µM is 94.6%.

Q: And the viability at 111 µM (PDX UPNT489; Homo sapiens, UPNT489, dT 111 µM, read-out: Cell viability, Mean (% viab))?
A: The viability at 111 µM was 87%.

Q: And the viability at 333 µM (PDX UPNT489; Homo sapiens, UPNT489, dT 333 µM, read-out: Cell viability, Mean (% viab))?
A: The viability at 333 µM was 78.3%.

Q: And the viability at 1000 µM (PDX UPNT489; Homo sapiens, UPNT489, dT 1000 µM, read-out: Cell viability, Mean (% viab))?
A: Its viability at 1000 µM is 71.4%.

Q: What about the viability at 3000 µM (PDX UPNT489; Homo sapiens, UPNT489, dT 3000 µM, read-out: Cell viability, Mean (% viab)) of the same compound?
A: The viability at 3000 µM was 66.9%.

Q: And the “Response at dT100 µM” value (PDX UPNT489; PDX 489, dT 100 µM)?
A: The value was 39.
